Data: article PMC9947563, “Identification of the molecular determinants of antagonist potency in the allosteric binding pocket of human P2X4” (Frontiers in Pharmacology, 2023)

Experiments:
[1] = target: T1, human P2X4 I312T (h4-I312T) (Homo sapiens, UniProt Q99571, I312T); experiment: ATP-induced calcium influx (Fluo-4) in 1321N1 cells stably expressing human P2X4 I312T; format: cell-based
T1 construct: expressed in transfected cells; host or cells: 1321N1 astrocytoma cells, stably transfected
T1 sequence (Q99571 1-388 I312T): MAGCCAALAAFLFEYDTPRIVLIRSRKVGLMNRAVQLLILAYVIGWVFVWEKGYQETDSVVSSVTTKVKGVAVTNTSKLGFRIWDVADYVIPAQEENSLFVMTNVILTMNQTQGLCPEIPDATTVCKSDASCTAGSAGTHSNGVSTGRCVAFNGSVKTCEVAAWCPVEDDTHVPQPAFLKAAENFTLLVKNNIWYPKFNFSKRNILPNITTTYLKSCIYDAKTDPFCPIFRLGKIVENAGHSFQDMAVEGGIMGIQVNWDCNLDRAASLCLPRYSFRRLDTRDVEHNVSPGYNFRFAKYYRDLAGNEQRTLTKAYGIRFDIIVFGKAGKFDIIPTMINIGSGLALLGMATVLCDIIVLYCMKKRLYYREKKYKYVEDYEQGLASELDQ
Description: Plasmid encoding rat P2X4 (r4-WT) ([Royle et al., 2005]) was a kind gift from Ruth Murrell-Lagnado, whilst that encoding human P2X4 with a C-terminal (His)10 tag has been reported previously ([Young et al., 2008]).
1321N1 astrocytoma cells were cultured (at 37°C, 5% CO2) in Dulbecco’s modified Eagle’s medium (DMEM/F-12 with Glutamax) supplemented with 10% foetal bovine serum (FBS) and 200 unit/mL of penicillin and streptomycin antibiotics (Fisher Scientific). Stably transfected clones were grown in DMEM/F-12 with Glutamax medium supplemented with G-418 (Geneticin®, Fisher Scientific), 600 μg/mL and 150 μg/mL during selection and maintenance, respectively. […] Each cell line was then tested for P2X4 receptor expression by Western blot and for functionality using the Ca^2+ influx assay.
Cells were plated the day before assay into poly-lysine-coated 96-well plates at 40–55,000 cells/mL. […] Prior to assay, buffer was replaced with fresh modified Ringer’s buffer containing probenecid but not the dye. […] A Fluoroskan Ascent FL plate reader (Fisher Scientific) equipped with a solution dispenser and an appropriate filter pair (excitation: 485 nm, emission: 538 nm) was used to record 5-s baseline followed by P2X4-mediated calcium influx measurements for 20–25 s after ATP stimulation (final concentration ranging between 0.03 and 100 μM in buffered solution, pH = 7.4). The collected responses were normalized to the first data-point recorded after ATP injection.
Data processing and data analysis were carried out using Graphpad Prism version 6 for Mac. Figures are presented as Mean ± SEM. […] When comparing data obtained from multiple independent experiments (N), each dataset was normalized to the mean value obtained for the vehicle control.

[2] = target: T2, rat P2X4 wild type (r4-WT) (Rattus norvegicus, UniProt P51577); experiment: ATP-induced calcium influx (Fluo-4) in 1321N1 cells stably expressing rat P2X4 wild type; format: cell-based
T2 construct: expressed in transfected cells; host or cells: 1321N1 astrocytoma cells, stably transfected
T2 sequence (P51577 1-388): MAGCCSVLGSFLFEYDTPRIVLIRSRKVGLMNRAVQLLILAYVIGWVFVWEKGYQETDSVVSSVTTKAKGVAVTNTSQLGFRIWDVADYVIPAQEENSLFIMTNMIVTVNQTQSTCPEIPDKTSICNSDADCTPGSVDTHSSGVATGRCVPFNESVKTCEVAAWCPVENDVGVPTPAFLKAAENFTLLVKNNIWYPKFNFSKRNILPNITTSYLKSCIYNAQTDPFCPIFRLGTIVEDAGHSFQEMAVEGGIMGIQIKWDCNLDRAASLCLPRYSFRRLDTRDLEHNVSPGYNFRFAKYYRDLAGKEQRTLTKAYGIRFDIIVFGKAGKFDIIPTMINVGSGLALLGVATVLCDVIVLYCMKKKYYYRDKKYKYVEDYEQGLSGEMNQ
Description: 1321N1 astrocytoma cells were cultured (at 37°C, 5% CO2) in Dulbecco’s modified Eagle’s medium (DMEM/F-12 with Glutamax) supplemented with 10% foetal bovine serum (FBS) and 200 unit/mL of penicillin and streptomycin antibiotics (Fisher Scientific). Stably transfected clones were grown in DMEM/F-12 with Glutamax medium supplemented with G-418 (Geneticin®, Fisher Scientific), 600 μg/mL and 150 μg/mL during selection and maintenance, respectively. FuGene HD Transfection Reagent (Promega) was used according to the manufacturer’s protocol for the generation of stable cell line expressing h4-WT, r4-WT, h4-I312T, and r4-T312I. Each cell line was then tested for P2X4 receptor expression by Western blot and for functionality using the Ca^2+ influx assay.
Cells were plated the day before assay into poly-lysine-coated 96-well plates at 40–55,000 cells/mL. To load cells with calcium-sensitive fluorescent dye, culture medium was replaced with modified Ringer’s buffer (140 mM NaCl, 10 mM HEPES, 10 mM Glucose, 1 mM MgCl2, 1 mM CaCl2, 2.5 mM KCl, 0.5% BSA, pH = 7.4) containing 2.6 μM FLUO4-AM (Fisher Scientific) and 250 μM probenecid (Sigma), and cells were incubated for 20–30 min. Prior to assay, buffer was replaced with fresh modified Ringer’s buffer containing probenecid but not the dye. […] A Fluoroskan Ascent FL plate reader (Fisher Scientific) equipped with a solution dispenser and an appropriate filter pair (excitation: 485 nm, emission: 538 nm) was used to record 5-s baseline followed by P2X4-mediated calcium influx measurements for 20–25 s after ATP stimulation (final concentration ranging between 0.03 and 100 μM in buffered solution, pH = 7.4). The collected responses were normalized to the first data-point recorded after ATP injection.
Data processing and data analysis were carried out using Graphpad Prism version 6 for Mac. Figures are presented as Mean ± SEM. Statistical significance of any difference observed between samples was calculated through one-way ANOVA followed by Dunnett’s multiple comparisons test with a single pooled variance (control, unless otherwise specified) or, when comparing only two sets of data, using an unpaired t-test with Welch’s correction. When comparing data obtained from multiple independent experiments (N), each dataset was normalized to the mean value obtained for the vehicle control.

`CC(C)c1cc(Br)c(NC(=O)Nc2cccnc2)c(Br)c1` [BX430] was tested, and the “decrease in BX-430 potency by I312T mutation in human P2X4” value ([1]; human P2X4 I312T vs human P2X4 WT) was greater than 48 fold, the “Hill coefficient (BX-430 inhibition curve)” value ([1]; human P2X4 I312T, 1 µM ATP) was 2.057 and the IC50 [2] was 66.1 µM. For the same compound, the “Hill coefficient (BX-430 inhibition curve)” value ([2]; rat P2X4 WT, 1 µM ATP) was 1.441.
